This note sets out measurements from patent US20250034136A1 (Nimbus Wadjet, Inc., priority 2023, published 2025).

The target of experiment [1] is WRN (BV08), human Werner helicase (Uniprot Q14191, amino acids 517-1235 with L1074F point mutation) (Homo sapiens (Human), UniProt Q14191, L1074F). Nature of the experiment: WRN (BV08) ADP-Glo assay. Type of experiment: biochemical. As to conditions: class symbols A-E, read-out: ADP-Glo_hWRN_IC50. A general note: ADP-Glo first removes unused ATP, then detects ADP through luciferase.

Experiment [2] deals with p21 induction in HCT116 cells. Briefly: p21 induction in HCT116 cells. As to conditions: Homo sapiens, HCT-116, 24 h, HCT116 cells, 24 h compound incubation; read-out: P21_EC50. Type of experiment: cell-based. The gist of the method: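 EC50 from non-linear curve fit of p21 immunofluorescence (800 nm), with GAPDH (700 nm) read alongside. DMSO and a reference WRN inhibitor served as low and high controls. Cells (2,000/well) got 11 compound concentrations in duplicate for 24 h at 37 °C.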

Some results are limits rather than exact numbers.

Sequence of WRN (BV08), human Werner helicase (Uniprot Q14191, amino acids 517-1235 with L1074F point mutation) (Q14191 other isoform, or with tags, fused parts or gaps L1074F (already in the parent)): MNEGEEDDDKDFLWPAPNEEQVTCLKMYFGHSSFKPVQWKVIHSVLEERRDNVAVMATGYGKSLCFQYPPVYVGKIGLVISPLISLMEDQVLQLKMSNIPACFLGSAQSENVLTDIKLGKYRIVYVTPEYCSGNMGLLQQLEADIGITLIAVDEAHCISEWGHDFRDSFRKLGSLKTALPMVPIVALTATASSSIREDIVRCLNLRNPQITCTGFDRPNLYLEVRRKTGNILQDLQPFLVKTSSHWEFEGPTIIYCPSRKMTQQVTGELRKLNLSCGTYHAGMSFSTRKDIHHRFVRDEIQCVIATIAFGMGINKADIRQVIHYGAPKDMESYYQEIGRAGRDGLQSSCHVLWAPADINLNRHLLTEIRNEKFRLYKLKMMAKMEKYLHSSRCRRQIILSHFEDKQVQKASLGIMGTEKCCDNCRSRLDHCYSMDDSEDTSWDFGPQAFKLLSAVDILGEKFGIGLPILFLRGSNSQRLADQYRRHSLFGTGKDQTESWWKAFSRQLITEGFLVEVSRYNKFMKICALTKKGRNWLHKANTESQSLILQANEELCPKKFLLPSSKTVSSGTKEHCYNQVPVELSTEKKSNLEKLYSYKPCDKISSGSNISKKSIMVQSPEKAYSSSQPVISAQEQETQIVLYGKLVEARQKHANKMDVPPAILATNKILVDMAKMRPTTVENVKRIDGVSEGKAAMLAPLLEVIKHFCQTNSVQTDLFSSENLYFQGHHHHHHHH

Regarding `CCc1c(N2CCN(C(=O)c3ncnc(C)c3O)CC2)c(=O)c2nc(/C=C/C(=O)N(C)C)cnc2n1CC(=O)Nc1ccc(C(F)(F)F)cc1Cl` [I-134, (2E)-3-[5-({[2-chloro-4-(trifluoromethyl)phenyl]carbamoyl}methyl)-6-ethyl-7-[4-(5-hydroxy-6-methylpyrimidine-4-carbonyl)piperazin-1-yl]-8-oxo-5H,8H-pyrido[2,3-b]pyrazin-2-yl]-N,N-dimethylprop-2-enamide], in experiment [1], the IC50 was in the range of 50 to 100 nM. In experiment [2], the EC50 was above 5000 nM.

Consider `CCc1c(N2CCN(C(=O)c3ncnc(C)c3O)CC2)c(=O)c2nc(-c3ccnn3C)cnc2n1CC(=O)Nc1ccc(C(F)(F)F)cc1Cl` [I-137, N-[2-chloro-4-(trifluoromethyl)phenyl]-2-{6-ethyl-7-[4-(5-hydroxy-6-methylpyrimidine-4-carbonyl)piperazin-1-yl]-2-(1-methyl-1H-pyrazol-5-yl)-8-oxo-5H,8H-pyrido[2,3-b]pyrazin-5-yl}acetamide], for which the IC50 in experiment [1] fell in the range of 5 to 50 nM. In experiment [2], the EC50 was above 5000 nM.

As for `CCc1c(N2CCN(C(=O)c3ncnc(C)c3O)CC2)c(=O)c2nc(/C=C/C(C)(C)O)cnc2n1CC(=O)Nc1ccc(C(F)(F)F)cc1Cl` [I-138, N-[2-chloro-4-(trifluoromethyl)phenyl]-2-{6-ethyl-2-[(1E)-3-hydroxy-3-methylbut-1-en-1-yl]-7-[4-(5-hydroxy-6-methylpyrimidine-4-carbonyl)piperazin-1-yl]-8-oxo-5H,8H-pyrido[2,3-b]pyrazin-5-yl}acetamide], the IC50 in experiment [1] fell in the range of 5 to 50 nM. For the same compound, the EC50 in experiment [2] was above 5000 nM.

Turning to `CCc1c(N2CCN(C(=O)c3ncnc(C)c3O)CC2)c(=O)c2nc(OC3COC3)cnc2n1CC(=O)Nc1ccc(C(F)(F)F)cc1Cl` [I-140, N-[2-chloro-4-(trifluoromethyl)phenyl]-2-{6-ethyl-7-[4-(5-hydroxy-6-methylpyrimidine-4-carbonyl)piperazin-1-yl]-2-(oxetan-3-yloxy)-8-oxo-5H,8H-pyrido[2,3-b]pyrazin-5-yl}acetamide], the IC50 in experiment [1] is above 500 nM. In addition, in experiment [2], the EC50 was above 5000 nM.

For the compound `CCc1c(N2CCN(C(=O)c3ncnc(C)c3O)CC2)c(=O)c2nc(OC3CCC3)cnc2n1CC(=O)Nc1ccc(C(F)(F)F)cc1Cl` [I-141, N-[2-chloro-4-(trifluoromethyl)phenyl]-2-{2-cyclobutoxy-6-ethyl-7-[4-(5-hydroxy-6-methylpyrimidine-4-carbonyl)piperazin-1-yl]-8-oxo-5H,8H-pyrido[2,3-b]pyrazin-5-yl}acetamide], the IC50 in experiment [1] is 5 to 50 nM. Besides, in experiment [2], the EC50 was above 5000 nM.

Regarding `CCc1c(N2CCN(C(=O)c3ncnc(C)c3O)CC2)c(=O)c2nc(/C=C3\CCC3C)cnc2n1CC(=O)Nc1ccc(C(F)(F)F)cc1Cl` (stereo not shown) [I-142, N-[2-chloro-4-(trifluoromethyl)phenyl]-2-{6-ethyl-7-[4-(5-hydroxy-6-methylpyrimidine-4-carbonyl)piperazin-1-yl]-2-[(2-methylcyclobutylidene)methyl]-8-oxo-5H,8H-pyrido[2,3-b]pyrazin-5-yl}acetamide], the IC50 in experiment [1] was at most 5 nM. Further, the EC50 in experiment [2] was 500 to 2000 nM.

For `CCc1c(N2CCN(C(=O)c3ncnc(C)c3O)CC2)c(=O)c2nc(/C=C/C3CCC3)cnc2n1CC(=O)Nc1ccc(C(F)(F)F)cc1Cl` [I-144, N-[2-chloro-4-(trifluoromethyl)phenyl]-2-{2-[(1E)-2-cyclobutylethenyl]-6-ethyl-7-[4-(5-hydroxy-6-methylpyrimidine-4-carbonyl)piperazin-1-yl]-8-oxo-5H,8H-pyrido[2,3-b]pyrazin-5-yl}acetamide], in experiment [1], the IC50 is at most 5 nM. Further, the EC50 in experiment [2] lay in the range of 500 to 2000 nM.

Take `CCc1c(N2CCN(C(=O)c3c(C#N)cnc(C)c3O)CC2)c(=O)c2ncc(C)nc2n1CC(=O)Nc1ccc(C(F)(F)F)cc1Cl` [I-145, N-[2-chloro-4-(trifluoromethyl)phenyl]-2-{7-[4-(5-cyano-3-hydroxy-2-methylpyridine-4-carbonyl)piperazin-1-yl]-6-ethyl-3-methyl-8-oxo-5H,8H-pyrido[2,3-b]pyrazin-5-yl}acetamide]: the IC50 in experiment [1] was 5 to 50 nM. For the same compound, the EC50 in experiment [2] is above 5000 nM.

For `CCc1c(N2CCCN(C(=O)c3ncnc(C)c3O)CC2)c(=O)c2nc(N(C)C)cnc2n1CC(=O)Nc1ccc(C(F)(F)F)cc1Cl` [I-147, N-[2-chloro-4-(trifluoromethyl)phenyl]-2-[2-(dimethylamino)-6-ethyl-7-[4-(5-hydroxy-6-methylpyrimidine-4-carbonyl)-1,4-diazepan-1-yl]-8-oxo-5H,8H-pyrido[2,3-b]pyrazin-5-yl]acetamide], the IC50 in experiment [1] is 5 to 50 nM. The EC50 in experiment [2] was above 5000 nM.

Take `CCc1c(N2CCN(C(=O)c3ncnc(C)c3O)CC2)c(=O)c2nc(N(C)C)cnc2n1CC(=O)Nc1c(F)cc(C(F)(F)F)cc1F` [I-148, N-[2,6-difluoro-4-(trifluoromethyl)phenyl]-2-[2-(dimethylamino)-6-ethyl-7-[4-(5-hydroxy-6-methylpyrimidine-4-carbonyl)piperazin-1-yl]-8-oxo-5H,8H-pyrido[2,3-b]pyrazin-5-yl]acetamide]: in experiment [1], the IC50 lay in the range of 5 to 50 nM. Also, the EC50 in experiment [2] is above 5000 nM.

`CCc1c(N2CCN(C(=O)c3ncnc(C)c3O)CC2)c(=O)c2nc(N3CCC[C@@H]3C)cnc2n1CC(=O)Nc1ccc(C(F)(F)F)cc1Cl` [I-149, N-[2-chloro-4-(trifluoromethyl)phenyl]-2-{6-ethyl-7-[4-(5-hydroxy-6-methylpyrimidine-4-carbonyl)piperazin-1-yl]-2-[(2S)-2-methylpyrrolidin-1-yl]-8-oxo-5H,8H-pyrido[2,3-b]pyrazin-5-yl}acetamide]: the IC50 in experiment [1] lay within 5 to 50 nM. In addition, the EC50 in experiment [2] lay within 500 to 2000 nM.

Regarding `CCc1c(N2CCN(C(=O)c3ncnc(C)c3O)CC2)c(=O)c2nc(N3CCC[C@H]3C)cnc2n1CC(=O)Nc1ccc(C(F)(F)F)cc1Cl` [I-150, N-[2-chloro-4-(trifluoromethyl)phenyl]-2-{6-ethyl-7-[4-(5-hydroxy-6-methylpyrimidine-4-carbonyl)piperazin-1-yl]-2-[(2R)-2-methylpyrrolidin-1-yl]-8-oxo-5H,8H-pyrido[2,3-b]pyrazin-5-yl}acetamide], in experiment [1], the IC50 is 5 to 50 nM. Moreover, in experiment [2], the EC50 was 500 to 2000 nM.

With `CCc1c(N2CCN(C(=O)c3ncnc(C)c3O)CC2)c(=O)c2nc(N3CCC4(CCC4)C3)cnc2n1CC(=O)Nc1ccc(C(F)(F)F)cc1Cl` [I-151, 2-(2-{6-azaspiro[3.4]octan-6-yl}-6-ethyl-7-[4-(5-hydroxy-6-methylpyrimidine-4-carbonyl)piperazin-1-yl]-8-oxo-5H,8H-pyrido[2,3-b]pyrazin-5-yl)-N-[2-chloro-4-(trifluoromethyl)phenyl]acetamide], the IC50 in experiment [1] was 5 to 50 nM. In addition, the EC50 in experiment [2] lay in the range of 2000 to 5000 nM.

As for `CCc1c(N2CCN(C(=O)c3ncnc(C)c3O)CC2)c(=O)c2nc(N3CCCC3C(C)(C)O)cnc2n1CC(=O)Nc1ccc(C(F)(F)F)cc1Cl` (stereo not shown) [I-152, N-[2-chloro-4-(trifluoromethyl)phenyl]-2-{6-ethyl-7-[4-(5-hydroxy-6-methylpyrimidine-4-carbonyl)piperazin-1-yl]-2-[2-(2-hydroxypropan-2-yl)pyrrolidin-1-yl]-8-oxo-5H,8H-pyrido[2,3-b]pyrazin-5-yl}acetamide], the IC50 in experiment [1] is 5 to 50 nM. The EC50 in experiment [2] was above 5000 nM.
